In patent US20240010635A1, “NOVEL INDIRUBIN DERIVATIVES HAVING HETEROBICYCLIC MOIETIES AND THE USE THEREOF” (priority 2022, published 2024) one finds GI50 data, which are given here for three molecules.

Holding throughout (type): cell-based
Experiment [1] deals with MV4-11. Nature of the experiment: Cell proliferation inhibition in AML cell line MV4-11 (Alamar Blue). As to conditions: Homo sapiens, MV4-11, 72 hours, read-out: Cell proliferation inhibitory activity (GI50) MV4-11. The text has this: (§1) Cell proliferation inhibition experiments on acute myeloid leukemia (AML) cell lines tested FLT3 inhibitory activity using MV4-11, Molm-13, and Molm-14 cells, which are FLT3-ITD-expressed AML cell lines. The origin of all cell lines is human-derived cell lines, and the place of purchase and culture conditions of each cell line are as follows.
(§2) MV4-11 cells were purchased form the American Type Culture Collection (ATCC, Rockville, MD, USA, cat #CRL-9591), Molm-13 (DSMZ, cat #ACC554), Molm-14 (DSMZ, cat #ACC777), and then cultured in RPMI 1640 medium (Corning Co. 10-040-CV) supplemented with 10% fetal bovine serum, 1% penicillin/streptomycin and 4 mM L-glutamine (Life Technology, GrandIsland, NY).
(§3) Cell viability was evaluated by Resazurin redox-based analysis method with Alamar Blue Assay Kit (Invitrogen, USA). Specifically, for MV4-11, Molm-13 and Molm-14 cells, 8000 cells were plated on 384-well plates in 45 μl of medium. Compounds were treated with dimethyl sulfoxide (DMSO) as a negative control group. After 3 days (72 hours) of compound addition, 5 μl of Alamar Blue kit reagent was added to each well of 384-well plate and incubated at 37° C. for 2 hours in a humidified CO2 incubator. After incubation, fluorescence density (Flu) was measured at a wavelength of 544 nm and 590 nm using SpectraMax iD3 Multi Mode Microplate Reader (Molecular Devices, ID3-STD). GI50 was calculated by nonlinear regression using Prism version 5.01 (GraphPad, LaJolla, CA, USA).

Experiment [2] has as its system Molm-13. Briefly: Cell proliferation inhibition in AML cell line Molm-13 (Alamar Blue). As to conditions: Homo sapiens, Molm-13, 72 hours, read-out: Cell proliferation inhibitory activity (GI50) Molm-13.
Excerpt: as §1, §2, §3

The test system of experiment [3] is Molm-14. Nature of the experiment: Cell proliferation inhibition in AML cell line Molm-14 (Alamar Blue). The following applies: Homo sapiens, Molm-14, 72 hours, read-out: Cell proliferation inhibitory activity (GI50) Molm-14.
Excerpt: as §1, §2, §3
A general note: Resazurin is reduced to fluorescent resorufin, in cell work by metabolically active cells.

For `O=C1Nc2ccc(F)cc2/C1=C1/Nc2ccccc2/C1=N\OCCN1CCNCC1` [Comparative Example 3, reference compound], the values for the GI50 in experiment [1], in experiment [2] and in experiment [3] were 3.7 nM, 2.53 nM and 1.6 nM, respectively.

With `O=C1Nc2cc(Br)ccc2/C1=C1/Nc2ccccc2/C1=N\OCCN1CCNCC1` [Comparative Example 1, reference compound], the GI50 in experiment [1] came to 20 nM; in experiment [2] it was 11.2 nM; in experiment [3] it was 9.36 nM.

Turning to `O=C1Nc2ccc(Br)cc2/C1=C1/Nc2ccccc2/C1=N\OCCN1CCNCC1` [Comparative Example 2, reference compound], the results for the GI50 in experiment [1], in experiment [2] and in experiment [3] were 7 nM, 4.08 nM and 4.08 nM, respectively.
